Experiments:
Assay type in all cases: functional
A549 = experiment: Antitumor activity against human A549 cells incubated for 48 hrs
Hs-578T = experiment: Antitumor activity against human Hs-578T cells incubated for 48 hrs
HCT-116 = experiment: Antitumor activity against human HCT-116 cells incubated for 48 hrs
MDA-MB-231 [1] = experiment: Antitumor activity against human MDA-MB-231 cells incubated for 48 hrs by Celltiter Blue reagent based 2D microtiter assay
MDA-MB-231 [2] = experiment: Antitumor activity against human MDA-MB-231 cells incubated for 48 hrs in presence of 1.5% BSA by Celltiter Blue reagent based 3D microtiter assay
MDA-MB-231 [3] = experiment: Antitumor activity against human MDA-MB-231 cells incubated for 48 hrs in presence of 1.5% BSA by Celltiter Blue reagent based 2D microtiter assay
MDA-MB-231 [4] = experiment: Antitumor activity against human MDA-MB-231 cells incubated for 48 hrs by Celltiter Blue reagent based 3D microtiter assay

Structure (SMILES)	GI50 (A549)	GI50 (Hs-578T)	GI50 (HCT-116)	GI50 (MDA-MB-231 [1])	GI50 (MDA-MB-231 [2])	GI50 (MDA-MB-231 [3])	GI50 (MDA-MB-231 [4])
COc1cc(C(=O)Nc2cc3c(cc2Oc2cc(C)cc(C)c2)C(=O)N(C)[C@@H](CC(=O)N(C)C)C(=O)N3)c(Br)c(OC)c1OC	< 5 nM	< 5 nM	< 5 nM				
[2H]C([2H])([2H])Oc1cc(C(=O)Nc2cc3c(cc2Oc2cc(C)cc(C)c2)C(=O)N[C@@H](CC(=O)N(C)OC)C(=O)N3)c(Br)c(OC([2H])([2H])[2H])c1OC([2H])([2H])[2H]	4.9 nM	< 5 nM	7.8 nM	< 1 nM	90.3 nM	< 1 nM	251 nM
[2H]C([2H])([2H])Oc1cc(C(=O)Nc2cc3c(cc2Oc2cc(C)cc(C)c2)C(=O)N[C@@H](CC(=O)N(C)O)C(=O)N3)c(Br)c(OC([2H])([2H])[2H])c1OC([2H])([2H])[2H]	< 5 nM	8.6 nM	15.6 nM				
[2H]C([2H])([2H])N1C(=O)c2cc(Oc3cc(C)cc(C)c3)c(NC(=O)c3cc(OC)c(OC)c(OC)c3Br)cc2NC(=O)[C@@H]1CC(=O)N(CC)CC	< 5 nM	20.9 nM	< 5 nM				
[2H]C([2H])([2H])C([2H])([2H])N(C(=O)C[C@@H]1NC(=O)c2cc(Oc3cc(C)cc(C)c3)c(NC(=O)c3cc(OC)c(OC)c(OC)c3Br)cc2NC1=O)C([2H])([2H])C([2H])([2H])[2H]	< 5 nM	16.1 nM	< 5 nM				
[2H]C([2H])([2H])Oc1cc(C(=O)Nc2cc3c(cc2Oc2cc(C)cc(C)c2)C(=O)N(C)[C@@H](CC(=O)N(C)C)C(=O)N3)c(Br)c(OC([2H])([2H])[2H])c1OC([2H])([2H])[2H]	< 5 nM	< 5 nM	< 5 nM				
[2H]C([2H])([2H])C([2H])([2H])N(C(=O)C[C@H]1C(=O)Nc2cc(NC(=O)c3cc(OC)c(OC)c(OC)c3Br)c(Oc3cc(C)cc(C)c3)cc2C(=O)N1C)C([2H])([2H])C([2H])([2H])[2H]	< 5 nM	< 5 nM	15.6 nM				
[2H]C([2H])([2H])Oc1cc(C(=O)Nc2cc3c(cc2Oc2cc(C)cc(C)c2)C(=O)N(C)[C@@H](CC(=O)N(C([2H])([2H])C([2H])([2H])[2H])C([2H])([2H])C([2H])([2H])[2H])C(=O)N3)c(Br)c(OC([2H])([2H])[2H])c1OC([2H])([2H])[2H]	< 5 nM	< 5 nM	< 5 nM				
[2H]C([2H])([2H])N(C(=O)C[C@@H]1NC(=O)c2cc(Oc3cc(C)cc(C)c3)c(NC(=O)c3cc(OC)c(OC)c(OC)c3Br)cc2NC1=O)C([2H])([2H])[2H]	< 5 nM	< 5 nM	7.1 nM	9.33 nM	22.5 nM	9.43 nM	9.96 nM
[2H]C([2H])([2H])c1cc(Oc2cc3c(cc2NC(=O)c2cc(OC)c(OC)c(OC)c2Cl)NC(=O)[C@H](CC(=O)N(CC)CC)NC3=O)cc(C([2H])([2H])[2H])c1	11.6 nM	30.1 nM	< 5 nM				
[2H]C([2H])([2H])Oc1cc(C(=O)Nc2cc3c(cc2Oc2cc(C)cc(C)c2)C(=O)N[C@@H](CC(=O)N(CC)CC)C(=O)N3)c(Br)c(OC([2H])([2H])[2H])c1OC([2H])([2H])[2H]	< 5 nM	8.1 nM	< 5 nM				
